Results from BindingDB's records for doi:10.1021/jm00105a069 (Schering-Plough, 1991).

Assay: Concentration required to cause 50% inhibition of platelet activating factor (PAF)-induced platelet aggregation of human platelet rich plasma when challenged with 25 nM PAF.

Row | IC50 [µM] | SMILES
1 | > 50 | CC(=O)C1CCC(=C2c3ccc(Cl)cc3CCc3cccnc32)CC1 (centres undefined)
2 | 3.4 | CC(=O)N1CCC(=C2c3cc(Cl)ccc3CCc3cccnc32)CC1
3 | 13 | O=CN1CCC(=C2c3ccc(Cl)cc3CCc3cccnc32)CC1
4 | 0.67 | CC(=O)N1CCC(=C2c3ccc(F)cc3CCc3cccnc32)CC1
5 | 1 | CC(=O)N1CCC(=C2c3cc(F)c(F)cc3CCc3cccnc32)CC1
6 | > 50 | CC(=O)N(C)CC/C=C1/c2ccc(Cl)cc2CCc2cccnc21
7 | 3.4 | COc1ccc2c(c1)CCc1cccnc1C2=C1CCN(C(C)=O)CC1
8 | 1.5 | COc1cc([C@@H]2CC[C@@H](c3cc(OC)c(OC)c(OC)c3)O2)cc(OC)c1OC
9 | 1 | CC(=O)N1CCC(=C2c3ccc(C)cc3CCc3cccnc32)CC1
10 | 0.61 | CC(=O)N1CCC(=C2c3ccc(Cl)cc3CCc3cccnc32)CC1
11 | > 50 | CN1CCC(=C2c3ccccc3CCc3cccnc32)CC1
12 | 0.82 | CC(=O)N1CCC(=C2c3cc(F)ccc3CCc3cccnc32)CC1
13 | 1.8 | CC(=O)N1CCC(=C2c3cc(Cl)c(Cl)cc3CCc3cccnc32)CC1
14 | 28 | CC(=O)N1CCC(=C(c2ccc(Cl)cc2)c2ccccn2)CC1
15 | 8.7 | CC(=O)N1CCC(=C2c3ccc(O)cc3CCc3cccnc32)CC1
16 | > 50 | CC(C)(C)C(=O)N1CCC(=C2c3ccc(Cl)cc3CCc3cccnc32)CC1
17 | 2.4 | CCC(=O)N1CCC(=C2c3ccc(Cl)cc3CCc3cccnc32)CC1
18 | 41 | CC(=O)N1CCC(=C2c3ccccc3CCc3ccccc32)CC1
19 | > 50 | CC(=O)N(C)CC/C=C1\c2ccc(Cl)cc2CCc2cccnc21
20 | 1.4 | CC(=O)N1CCC(=C2c3ccccc3CCc3cccnc32)CC1
21 | > 50 | O=C(c1ccccc1)N1CCC(=C2c3ccc(Cl)cc3CCc3cccnc32)CC1
22 | 33 | CCCC(=O)N1CCC(=C2c3ccc(Cl)cc3CCc3cccnc32)CC1
23 | > 50 | CN(C)CCC(c1ccc(Cl)cc1)c1ccccn1 (centres undefined) [clorfeniramina]
24 | 0.81 | CC(=O)N1CCC(=C2c3ccc(Br)cc3CCc3cccnc32)CC1
